{
  "source": "patent US8980845B2",
  "about": "“Biotechnological production of cyanophycin dipeptides” (Westfälische Wilhelms-Universität Münster, priority 2008, dated 2015)",
  "molecules": {"B1": {"name": "CphB: intracellular cyanophycinase of Synechocystis sp. PCC 6803 (protein, UniProt P73832 2-271, looked up)", "Cyanophycinase": "PLSSQPAILIIGGAEDKVHGREILQTFWSRSGGNDAIIGIIPSASREPLLIGERYQTIFSDMGVKELKVLDIRDRAQGDDSGYRLFVEQCTGIFMTGGDQLRLCGLLADTPLMDRIRQRVHNGEISLAGTSAGAAVMGHHMIAGGSSGEWPNRALVDMAVGLGIVPEIVVDQHFHNRNRMARLLSAISTHPELLGLGIDEDTCAMFERDGSVKVIGQGTVSFVDARDMSYTNAALVGANAPLSLHNLRLNILVHGEVYHQVKQRAFPRVT"}},
  "key": {"[1]": {"system": "purified CphEal from P. alcaligenes strain DIP1", "assay": "Effect of group-specific inhibitors on purified CphEal, HPLC analysis of CGP degradation products", "format": "biochemical", "settings": "for HPLC analysis (Inhibition %) high inhibitor concentration: high concentration (mM): Leupeptin 0.01, EDTA 60, Pefabloc 80, PMSF 10, NBS 5; for HPLC analysis (Inhibition %) high inhibitor concentration / HPLC analysis (Inhibition %) low inhibitor concentration: 2 h at 30° C., refers to control without inhibitor; for HPLC analysis (Inhibition %) low inhibitor concentration: low concentration (mM): Leupeptin 0.001, EDTA 30, Pefabloc 8, PMSF 1, NBS 1", "protocol": "(§1) To reveal the effect of enzyme inhibitors on the purified CphEal, 50 μl aliquots of the purified enzyme stalk solution were added to 450 μl of Na-phosphate buffer (50 mM) and incubated for 2 h at 30° C. in the presence of one of the following Group-specific inhibitors; Leupeptin (thiol-proteases), EDTA (metalloproteases), Pefabloc (serine-proteases), PMSF (serine-proteases) or N-bromosuccinimide (tryptophan residues).\n(§2) To gain information on the catalytic mechanism of CphEal, inhibitor experiments were conducted employing different group-specific inhibitors (Table 1)."}, "[2]": {"system": "purified CphEal from P. alcaligenes strain DIP1", "assay": "Effect of group-specific inhibitors on purified CphEal, activity on CGP-overlay agar plates", "format": "biochemical", "settings": "for Inhibition of CphEal (in words): assayed on CGP-overlay agar plates and by HPLC analysis", "protocol": "as §1, §2"}, "[3]": {"system": "P. alcaligenes strain DIP1", "assay": "Induction of CphEal production in cultures of strain DIP1", "format": "cell-based", "experimental": "The activity of the cyanophycinase (CphEal) was inspected by formation of degradation halos on CGP-overlay agar plates by small aliquots of concentrated enzyme solutions, for this, 5 ml culture samples were centrifuged at 2800×g for 30 min (Megafuge 1.0 R, Heraeus Sepatech GmbH, Osterode, Germany) and 4 ml of the resulting supernatant were concentrated 100 folds by ultrafiltration. For the quantitative determination of the enzyme in culture samples, a photometric method was developed as follows; 2 μl of the concentrated culture supernatant were added to 1 ml of a CGP suspension (100 mg l^−1) and incubated at 30° C. for 30 min in a tube rotator (3 rpm, type 502 S, Watson-Marlow GmbH, Rommerskirchen, Germany). Finally, OD600 nm of samples was measured to indicate the decrease in CGP amount due to degradation; this in turn was used to indicate the concentration of CphEal in solutions through the respective calibration curve.\nTo conclude the optimum cultivation conditions for maximum production of CphEal by strain DIP1, cells were cultivated on different concentrations of citrate under optimum growth conditions, when cells reached the stationary phase; CphEal production was induced by the addition of 0.25 g CGP.\nDuring the following 5 h, supernatant samples were concentrated (100 folds) and screened for degradation activity on CGP-overlay agar plates as well as photometrically.\nAll inductors were tested first at a concentration of 0.25 g l^−1 and CphEal production was assayed on CGP-overlay agar plates and also photometrically."}, "[4]": {"system": "Caco2 cells (human-colon epithelial adenocarcinoma cells)", "assay": "Absorption of CGP dipeptides by Caco2-cell cultures", "settings": "after 113 h of incubation; medium with 350 μg/ml CGP dipeptides (90% Asp-Arg: 10% Asp-Lys)", "experimental": "(§3) A Dulbecco's Modified Eagle Medium (DMEM) containing 20% Fetal Calf Serum (FCS) and 1% of 2 mM Glutamine solution was used as cultivation medium. About 7000 Caco2 cells per well were disseminated in a 24-well plate and incubated at 37° C. under an atmosphere of 5% CO2 and about 98% humidity. The cells were checked microscopically on a daily basis until forming monolayer after nearly 50 h. […] A well line was supplied with fresh 700 μl of the incubation medium without the latter additives and was considered as control. Samples were taken after incubation periods of 0, 13, 22, 67 and 113 h and were analyzed by HPLC as described by Sallam and Steinbüchel (J. App. Microbiol. DOI: 10.1111/j.1365-2672.2009.04221.x) to determine the change of concentrations of the tested dipeptides and amino acids."}, "[5]": {"system": "Caco2 cells (human-colon epithelial adenocarcinoma cells)", "settings": "Caco-2, 113 h", "experimental": "as §3"}, "[6]": {"settings": "low dose intravenous (IV) infusion; cited from earlier work"}, "[7]": {"settings": "250 mg/kg/day oral for seven days, five healthy subjects aged 20 to 35; cited from earlier work"}, "CGP": {"system": "CGP", "settings": "data from literature, cited from earlier work"}},
  "note": "“And” between values parts separate entries of the source, which are not always exact repeats. Identical values can stand only once. “Also recorded” adds a separate entry of the source. Like-named read-outs stand apart in the source and are kept apart here. Marks after values point to notes of the source that are not given here.",
  "data": [
    {"molecule": "O=C(O)CN(CCN(CC(=O)O)CC(=O)O)CC(=O)O", "note": "[EDTA]", "values": [
      {"measurement": "HPLC analysis of inhibitor-treated samples (in words)", "setting": "[1]", "value": "showed inhibition"},
      {"measurement": "HPLC analysis (Inhibition %) high inhibitor concentration", "setting": "[1]", "value": "75^c %"},
      {"measurement": "HPLC analysis (Inhibition %) low inhibitor concentration", "setting": "[1]", "value": "65^c %"},
      {"measurement": "Inhibition of the CGPase, HPLC analysis of samples treated with EDTA", "setting": "[1]; stated to be due to precipitates during OPA-derivatization", "value": "about 75%"},
      {"measurement": "Formation of degradation halos by CphEal on CGP-overlay agar plates in presence of inhibitor", "setting": "[2]", "value": "no activity inhibition; also recorded: not affected"}
    ]},
    {"molecule": "N[C@@H](CC(=O)O)C(=O)O", "note": "[L-aspartic acid]", "values": [
      {"measurement": "CphEal production after induction in comparison to cultures induced with optimum CGP concentration (0.05 g l^−1)", "setting": "[3]; 4 g l^−1 aspartate, 5 h", "value": "only the third"},
      {"measurement": "Time after induction at which maximum CphEal production was obtained", "setting": "[3]; at optimum inductor concentration", "value": 5, "unit": "h"},
      {"measurement": "Inductor concentration giving maximum CphEal production", "setting": "[3]; cultures of strain DIP1 under optimal production conditions", "value": 4, "unit": "g/L"},
      {"measurement": "Induction of CphEal production", "setting": "[3]; inductors tested at 0.25 g l^−1, CGP-overlay agar plates and photometrically", "value": "induced significant amounts"}
    ]},
    {"molecule": "CC(=O)N[C@@H](CC(C)C)C(=O)N[C@@H](CC(C)C)C(=O)N[C@H](C=O)CCCNC(=N)N", "note": "[Leupeptin]", "values": [
      {"measurement": "HPLC analysis (Inhibition %) high inhibitor concentration", "setting": "[1]", "value": 39, "unit": "%"},
      {"measurement": "HPLC analysis (Inhibition %) low inhibitor concentration", "setting": "[1]", "value": 10, "unit": "%"},
      {"measurement": "Formation of degradation halos by CphEal on CGP-overlay agar plates in presence of inhibitor", "setting": "[2]", "value": "no activity inhibition"},
      {"measurement": "Formation of degradation halos by CphEal on CGP-overlay agar plates in presence of inhibitor", "setting": "[2]; listed as leupeptin", "value": "not affected"}
    ]},
    {"molecule": "O=C1CCC(=O)N1Br", "note": "[NBS, N-bromosuccinimide]", "values": [
      {"measurement": "HPLC analysis (Inhibition %) high inhibitor concentration", "setting": "[1]", "value": 100, "unit": "%"},
      {"measurement": "HPLC analysis (Inhibition %) low inhibitor concentration", "setting": "[1]", "value": 100, "unit": "%"},
      {"measurement": "Inhibition of CphEal (in words)", "setting": "[2]", "value": "totally inhibited; also recorded: total inhibition"}
    ]},
    {"molecule": "O=S(=O)(F)Cc1ccccc1", "note": "[PMSF, Phenylmethylsulfonylfluoride]", "values": [
      {"measurement": "HPLC analysis (Inhibition %) high inhibitor concentration", "setting": "[1]", "value": 57, "unit": "%"},
      {"measurement": "HPLC analysis (Inhibition %) low inhibitor concentration", "setting": "[1]", "value": 0, "unit": "%"},
      {"measurement": "Inhibition of CphEal (in words)", "setting": "[2]", "value": "largely inhibited; also recorded: strongly inhibited"}
    ]},
    {"molecule": "Cl.NCCc1ccc(S(=O)(=O)F)cc1", "note": "[Pefabloc ®, 4-(2-aminoethyl) benzensulfonylfluoride•HCl]", "values": [
      {"measurement": "HPLC analysis (Inhibition %) high inhibitor concentration", "setting": "[1]", "value": 100, "unit": "%"},
      {"measurement": "HPLC analysis (Inhibition %) low inhibitor concentration", "setting": "[1]", "value": 91, "unit": "%"},
      {"measurement": "Inhibition of CphEal (in words)", "setting": "[2]; listed as Pefabloc", "value": "strongly inhibited"},
      {"measurement": "Inhibition of CphEal (in words)", "setting": "[2]; listed as Pefabloc®", "value": "largely inhibited"}
    ]},
    {"molecule": "NC(N)=NCCC[C@H](NC(=O)C[C@H](N)C(=O)O)C(=O)O", "note": "[cyanophycin Asp-Arg dipeptides, β-aspartate-arginine]", "values": [
      {"measurement": "Absorption by Caco2 cells (HPLC analysis of the medium samples)", "setting": "[4]", "value": "approximately 60%"}
    ]},
    {"molecule": "NCCCC[C@H](NC(=O)C[C@H](N)C(=O)O)C(=O)O", "note": "[cyanophycin Asp-Lys dipeptides, β-aspartate-lysine]", "values": [
      {"measurement": "Absorption by Caco2 cells (HPLC analysis of the medium samples)", "setting": "[4]", "value": 68, "unit": "%"}
    ]},
    {"molecule": "NCCCC[C@H](N)C(=O)O", "note": "[free L-lysine, L-lysine]", "values": [
      {"measurement": "Absorption by Caco2 cells (HPLC analysis of the medium samples)", "setting": "[5]", "value": 51, "unit": "%"}
    ]},
    {"molecule": "N=C(N)NCCC[C@H](N)C(=O)O", "note": "[free arginine, L-arginine]", "values": [
      {"measurement": "Absorption by Caco2 cells (HPLC analysis of the medium samples)", "setting": "[5]", "value": 41, "unit": "%"},
      {"measurement": "Serum GH levels", "setting": "[6]", "value": "significant increase"}
    ]},
    {"molecule": "L-Arginine-L-Aspartate [arginine aspartate]", "values": [
      {"measurement": "Rise in GH during slow wave sleep", "setting": "[7]", "value": 60, "unit": "%"}
    ]},
    {"molecule": "B1", "values": [
      {"measurement": "Mechanism", "setting": "CGP; cell wrapped: Exo-peptidase", "value": "Exo-"},
      {"measurement": "CGP degradation products", "setting": "CGP", "value": "β-Asp-Arg"},
      {"measurement": "Inhibitors", "setting": "CGP", "value": "PMSF, and 3,4-dichloro- and Pefabloc ®,"},
      {"measurement": "Optimum pH range", "setting": "CGP", "value": "7-8^"},
      {"measurement": "Optimum temperature", "setting": "CGP", "value": 35, "unit": "°C"}
    ]}
  ]
}
